Molecules are shown by their SMILES. Read-outs that look alike come from different tables or passages of the source.

Data set [1] relates to E0771 cells. Nature of the data set: E0771 orthotopic breast tumor model in germline Tet2+/+ or Tet2+/− mice. It counts as in vivo, mouse. The method, then:
6-8 week old B6(Cg)-Tet2tm1.2Rao/J (JAX) female mice heterozygous for Tet2 allele or wild-type for Tet2 allele were purchased for Jackson Laboratories.
The murine metastatic mammary cancer cell line E0771 was purchased from ATCC. E0771 cells were cultured in RPMI (Corning) supplemented with 10% FBS, 1% HEPES, 100 units/ml penicillin and 0.1 mg/ml streptomycin. Cells were maintained in a humidified 5% CO2 atmosphere at 37° C.
(§1) 2×10^5 E0771 cells were mixed with matrigel and implanted orthotopically into the mammary fat pad (day 0). Mice treated with dapansutrile were fed ad libitum with food pellets containing 7.5 g dapansutrile/kg food, which started on day 3 after E0771 cell implantation and continued until being sacrificed. Mice were sacrificed on day 18 for the germline mouse model and day 15 for the chimeric mouse model. Mice typically consume about 4 g of food per day, resulting in an approximate daily dose of 0 mg/kg/day for control groups and 1,000 mg/kg/day for the treatment groups. […] Wild-type and Tet2+/− mice were fed with control food pellets without dapansutrile. Mice were sacrificed following 15-18 days after E0771 cell implantation. Tumor volumes were assessed using ½(L×W×H) measured via digital caliper.
Myeloid cells are the predominant source of tumor-promoting IL-1β in the breast cancer TME, and TET2 mutations have been reported in tumor-infiltrating leukocytes. […] We orthotopically implanted the murine metastatic luminal B breast cancer cell line, E0771, into Tet2+/+ (WT) or Tet2+/− germline mice. Three days after implantation, mice were placed on a control chow diet or a nutritionally identical diet enriched with OLT1177® (dapansutrile) for 15 days. Mice were sacrificed following […] after E0771 cell implantation.

In a further data set the test system is IL-1β. The data set can be described thus: IL-1β production from bone marrow adherent cells isolated from tumor-bearing mice (ELISA). It counts as cell-based, mouse. The settings on record: adherent bone marrow cells from tumor-bearing Tet2+/− mice, LPS stimulated, dapansutrile treated vs untreated; p<0.05. On the procedure: Bone marrow cells from tumor-bearing mice was collected and filtered through […] cell strainer. 3×10^6 cells were plated in 24-well plates and incubated overnight. The next day to non-adherent fraction was removed and the adherent fraction was treated with 10 μM dapansutrile and were cultured in RPMI supplemented with 10% FBS, 100 units/ml penicillin and 0.1 mg/ml streptomycin for 24 hours. Cytokines were measured in cell culture supernatants using DuoSet ELISA (R&D Systems).
Bone marrow cells were collected from the four long bones as described above and filtered through a […] cell strainer prior to counting. 1×10^6 cells were plated in flat bottom tissue culture plates and incubated overnight. The next day the non-adherent fraction was removed and the adherent fraction was used for downstream experiments.
For western blot and cytokine analysis, adherent bone marrow cells were stimulated±LPS (100 ng/mL) and cultured for an additional 24 hours. Cells were cultured in RPMI supplemented with 10% FBS, 100 units/ml penicillin and 0.1 mg/ml streptomycin. […] Cytokines were measured in cell culture supernatants using DuoSet ELISA (R&D Systems).
Next, we assessed the inflammatory potential of myeloid cells from tumor-bearing mice. […]
In general terms: In an ELISA, binding on a coated surface is turned into a signal by an enzyme label.

Data set [2] relates to E0771 cells. Nature of the data set: E0771 orthotopic breast tumor model in Tet2+/+ or Tet2+/− bone marrow chimeric mice. It counts as in vivo, mouse.
From the text: as §1
To create a mouse model that more closely resembles human CHIP, we generated mice with chimeric bone marrow (BM) that was 75% wild type (WT), and 25% Tet2 […] (Tet2+/+) or heterozygous (Tet2+/−). To identify the contribution of WT or Tet2+/− cells to hematopoiesis, we used the pan hematopoietic marker CD45. […]
(§2) After 6 weeks of engraftment, mice were given breast tumors via orthotopic transplantation of breast cancer cells. Tumor progression was assessed by measuring the volume of the tumor in the mouse using calipers. […]

In data set [3] the test system is tumor-infiltrating granulocytes. The data set can be described thus: Flow cytometry of tumor-infiltrating granulocytes of BM chimera mice. It counts as in vivo, mouse. The settings on record: Tet2+/− chimeras. On the procedure: After 6 weeks of engraftment, mice were given breast tumors via orthotopic transplantation of breast cancer cells. Tumor progression was assessed by measuring the volume of the tumor in the mouse using calipers. After 15 days, mice were sacrificed, and their bone marrow, peripheral blood, and tumors were harvested for flow cytometry analysis to determine the levels of immune cell populations and relative contribution from WT or Tet2+/+ or Tet2+/− bone marrow cells.
Bone marrow isolation and cell staining was performed on ice in staining medium (SM; Hanks Balanced Salt Solution [HBSS 1×, Corning 1-022-CM] supplemented with heat inactivated fetal bovine serum [FBS, VWR 97068-05] to a final concentration of 2%). Femurs and tibiae were flushed with 3 mL of SM and followed by RBC lysis with ACK lysis buffer. Peripheral blood was isolated via the heart and placed into RBC lysis buffer. After RBC lysis cells were incubated on ice for 30 minutes with antibody cocktails prior to being washed and resuspended in SM containing propidium iodide to stain dead cells. Flow cytometry was performed on the BD FACSCelesta.

The subject of data set [4] is chemokine C-C motif ligand 2 (CCL2). Nature of the data set: Plasma CCL2 of BM chimera mice. The following applies: Tet2+/− chimeras, dapansutrile diet vs standard diet, p<0.05. It counts as in vivo, mouse. The text has this: (§3) FIGS. 5A-5B show plasma cytokine production of chemokine C-C motif ligand 2 (CCL2, 5A) and keratinocyte chemoattractant (KC, 5B) of BM chimera mice from FIG. 2

Data set [5] relates to keratinocyte chemoattractant (KC). The data set can be described thus: Plasma KC of BM chimera mice. It counts as in vivo, mouse. The following applies: Tet2+/− chimeras, dapansutrile diet vs standard diet, p<0.05.
From the text: as §3

A short description of data set [6]: Blood level in mice fed dapansutrile food pellets. Type of data set: in vivo, mouse. The following applies: 7.5 g/kg of dapansutrile in food (approx. 1,000 mg/kg/day).
From the text: as §1

A further data set relates to Tet2+/− clones. The data set can be described thus: Expansion of Tet2+/− clones in tumor-bearing BM chimera mice. Type of data set: in vivo, mouse. The settings on record: dapansutrile diet.
From the text: To create a mouse model that more closely resembles human CHIP, we generated mice with chimeric bone marrow (BM) that was 75% wild type (WT), and 25% Tet2 […] (Tet2+/+) or heterozygous (Tet2+/−). To identify the contribution of WT or Tet2+/− cells to hematopoiesis, we used the pan hematopoietic marker CD45. We used two congenic mouse strains with variants in CD45 C57BL/6 and Boy/J (CD45.2 and CD45.1, respectively), which can be identified with fluorescently labeled antibodies using flow cytometry analysis. To generate the chimeric BM, we lethally irradiated Boy/J recipient mice (CD45.1) with an 11gy split-dose administered three hours apart. Irradiated recipient mice were then transplanted with 2 million unfractionated BM cells that were a mix of 75% CD45.1 WT and 25% CD45.2
Tet2+/+ or Tet2+/−. Cells were given via a retro-orbital (RO) sinus injection. To monitor the engraftment of donor-derived cells, mice were bled every four weeks via the submandibular vein. […]
as §2
In this example, we first assessed the extent to which Tet2-deficient myeloid cells infiltrated into peripheral blood (FIG. 3A) and in the tumor (FIG. 3B).

For data set [7] the following is noted: humans treated orally at 1000 mg/day; cited from earlier work.
For data set [8] the following is noted: orally administered to healthy subjects; cited from earlier work.
For another data set, the target named is NLRP3 inflammasome (Homo sapiens, UniProt Q96P20). The settings on record: cited from earlier work.
NLRP3 inflammasome, sequence (Q96P20 whole entry): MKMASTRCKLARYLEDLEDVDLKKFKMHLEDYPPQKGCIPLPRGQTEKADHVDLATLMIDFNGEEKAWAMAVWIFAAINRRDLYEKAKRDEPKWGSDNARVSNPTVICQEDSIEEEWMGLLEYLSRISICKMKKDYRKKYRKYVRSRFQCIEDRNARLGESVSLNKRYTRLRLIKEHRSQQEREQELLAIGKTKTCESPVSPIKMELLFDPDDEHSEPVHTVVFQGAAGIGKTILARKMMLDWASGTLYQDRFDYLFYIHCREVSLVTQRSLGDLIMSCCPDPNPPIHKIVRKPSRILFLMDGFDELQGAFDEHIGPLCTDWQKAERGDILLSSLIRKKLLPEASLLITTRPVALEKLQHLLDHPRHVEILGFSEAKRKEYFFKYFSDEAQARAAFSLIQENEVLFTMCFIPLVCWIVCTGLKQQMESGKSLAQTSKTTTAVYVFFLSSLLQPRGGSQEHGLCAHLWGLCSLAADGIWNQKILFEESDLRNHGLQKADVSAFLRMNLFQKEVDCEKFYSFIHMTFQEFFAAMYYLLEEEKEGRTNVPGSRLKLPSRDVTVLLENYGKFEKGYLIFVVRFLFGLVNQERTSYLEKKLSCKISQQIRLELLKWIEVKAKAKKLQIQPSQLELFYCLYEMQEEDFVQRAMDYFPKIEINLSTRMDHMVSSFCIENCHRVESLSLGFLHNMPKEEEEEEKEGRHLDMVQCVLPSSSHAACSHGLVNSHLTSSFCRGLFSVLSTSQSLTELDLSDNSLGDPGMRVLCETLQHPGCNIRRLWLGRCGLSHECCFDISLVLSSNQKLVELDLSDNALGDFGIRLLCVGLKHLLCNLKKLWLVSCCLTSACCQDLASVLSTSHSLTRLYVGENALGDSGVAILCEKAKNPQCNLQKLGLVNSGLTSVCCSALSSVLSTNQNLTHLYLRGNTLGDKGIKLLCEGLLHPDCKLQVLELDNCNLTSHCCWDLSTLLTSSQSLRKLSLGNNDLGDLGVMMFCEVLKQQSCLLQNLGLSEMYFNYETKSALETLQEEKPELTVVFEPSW

On to `CS(=O)(=O)CCC#N` [dapansutrile, 3-methanesulfonyl-propionitrile], for which the tumor growth entry with E0771 cells [1] (Tet2+/+ (WT) germline mice on dapansutrile vs standard diet, p<0.05) was “significantly decreased”; in the data set with E0771 cells [2] (Tet2+/+ chimeric mice, dapansutrile diet, to baseline level equivalent to dapansutrile-treated Tet2+/− chimeric mice), “suppressed tumor growth”; in the data set with E0771 cells [2] (Tet2+/− chimeric mice, dapansutrile diet from day 3 vs control chow, p<0.001) it was “suppressed”. For the same compound, in the data set on E0771 cells [1] (Tet2+/+ (WT) vs Tet2+/− mice, both on dapansutrile diet), the “tumor growth, difference between genotypes” value is recorded as “No changes in tumor growth”. Also, the tumor growth reduction in the data set on E0771 cells [1] (Tet2+/− germline mice, dapansutrile diet (7.5 g/kg food, from day 3) vs Tet2+/− on standard diet, p<0.01) is 68%. Also, the IL-1β secretion entry with IL-1β was “significantly less”. In addition, the “tumor-infiltrating granulocytes (frequency)” value in data set [3] (dapansutrile diet vs standard diet, p<0.05) is on record as “significantly decreased”. In data set [3] (dapansutrile diet, p<0.001), the “MHC-II expression (gMFI) on tumor-infiltrating granulocytes” value was “rescued”. Besides, the “circulating CCL2” value in [4] was “significantly decreased”. Moreover, in data set [5], the “circulating KC” value is listed as “significantly decreased”. Also, the blood level in data set [6] is about 40000 ng/mL; in data set [7], 40000 ng/mL. For the same compound, the “expansion of Tet2+/− clones” value in the data set on Tet2+/− clones was “able to reduce”. The safety result in data set [8] is “safe”. Besides, the NLRP3 inflammasome inhibition result at NLRP3 inflammasome is reported as “selectively inhibit”.
